Source: a melting point compilation (Tetko et al.; mined from patent text by program, amines drawn as free bases though some values may be those of a salt)

SMILES | melting point
CC1(C)Oc2ccc([N+](=O)[O-])cc2C(n2ccccc2=O)C1(C)O (configuration not stated) | 214 °C
NC(=O)c1cccc(OCCCCC/C=C\c2ccsc2)c1 | 71 to 73 °C
CCc1nc(C(=O)O)c(Cl)c(N)c1F | 144 to 145 °C
CC1=CC(C)(C)N2CCCc3c(O)ccc1c32 | 125 to 126 °C
CN(C)C1(Cc2ccccc2)CCC(O)(c2cc3ccccc3n2C)CC1 (configuration not stated) | 105 to 107 °C
CS(=O)(=O)N1CCC(N)CC1 | 65.3 to 65.7 °C
CC(C)(C)OC(=O)N1CCC(c2ccc(N3C[C@@H](CCO)OC3=O)cc2F)CC1 | 120 to 122 °C
Cc1ccc(Cl)cc1-c1cc(F)cc2c1O[C@@H](CN)C2 | 148 to 150 °C
CCNc1c(OC)cc(C(=O)CS(C)(=O)=O)cc1OC | 129 to 130 °C
N#CC1(c2ccc(OCc3ccc(F)cc3)c(OC3CCCC3)c2)CCC(=O)CC1 | 145 to 146 °C
CN(N(C)S(C)(=O)=O)S(C)(=O)=O | 168 to 169 °C
COC(=O)C1=C(C)NC(C)=C(C(=O)OC)C1c1cccc(Nc2c(NCCCN3CCN(C4CCCCC4)CC3)c(=O)c2=O)c1 | 210 to 212 °C
COc1cc(OC)c2c(=O)[nH]c(-c3cc(C)c(OCCO)c(C)c3)cc2n1 | 225 °C
Cc1cnc(CNC(=O)c2sc(N3CCN(CC4CC4)C3=O)nc2C)cn1 | 161 to 163 °C
CC(C)C(=NO)c1ccc(Cl)cc1 | 91 to 117 °C
COC(=O)c1cscc1NC(=O)NCCCCCBr | 92 to 93.5 °C
Nc1c(C(=O)O)sc2cc(F)ccc12 | 160 to 163 °C
OCc1cc(Cl)cc(Cl)c1Cl | 90 to 93 °C
CC(=O)Nc1cc(N)c(Cl)cc1F | 142 to 143 °C
O=C1Cc2cc(Cl)c(N3CCCCC3)cc2O1 | 129 to 131 °C
Cc1nnc(OCC(F)(F)F)c(-c2c(F)cc(F)cc2F)c1-c1ccc(Cl)cc1 | 105 to 108 °C
Cc1cc(C)c2ncc(NC(=O)C3(C)CCc4c(C)c(O)c(C)c(C)c4O3)c(-c3ccccc3Cl)c2c1 (configuration not stated) | 222 to 224 °C

SMILES | melting point
COc1cc2c(cc1C(C)=O)CC1(CCCCN1C(=O)C(F)(F)F)CC2 (configuration not stated) | 156 to 157 °C
NS(=O)(=O)c1ccc(-c2noc(-c3cnn4c(C(F)(F)F)cc(-c5ccc(C(F)(F)F)cc5)nc34)n2)cc1 | 275 °C
CN1CCCN(Cc2nc3ccccc3[nH]2)CC1 | 152 to 155 °C
COc1ccc(C2(c3nc(N)nc(N)n3)CCCCC2)cc1 | 159 to 163 °C
CCCc1c(N)c(N)cc2c(=O)cc(C(=O)OC)oc12 | 221 to 222 °C
Cc1cc(Br)ccc1N=CN(C)SN(C)C=Nc1ccc(Br)cc1C | 127 to 129 °C
Cc1nc(C)c(=O)n(CCO)c1C | 140 to 144 °C
CCCCCCC1(Br)CC(=CNc2ccccc2)OC1=O (configuration not stated) | 147 to 148 °C
CC(C(=O)O)c1ccc2c(c1)C(=O)c1ccc(Cl)cc1CS2 (configuration not stated) | 137 to 138 °C
Cc1ccccc1-n1c(C=Cc2ccccn2)nc2ccsc2c1=O | 203 °C
OCCC1CCc2cc3ccccc3n2C1 (configuration not stated) | 70 to 72 °C
COCc1c(NC2CC2)c([N+](=O)[O-])cc(F)c1N1CCN(C)CC1 | 89 to 90 °C
CC(CNC(=O)N(CCN(C)C(=O)OC(C)(C)C)CCC12CC3CC(CC(C3)C1)C2)Cc1ccncc1 (single isomer, unassigned; (+)) | 123 to 124 °C
c1cc2cc(-c3cn([C@H]4CN5CCC4CC5)nn3)ccc2o1 | 178 °C
CC1Cc2cc(Br)cc(S(N)(=O)=O)c2O1 (configuration not stated) | 167 to 169 °C
COc1ccc(CC(C)NC(=O)N(C)O)cc1OC (configuration not stated) | 78 to 80 °C
CC(=O)Nc1cc2cc(N)ccc2oc1=O | 250 to 252 °C
CN(C(=O)c1ccc(Cn2cnc3cnccc32)cc1)C1CCCCC1 | 121 to 123 °C
CCOC(=O)CN1CCC(CNC(=O)c2cc(Cl)c(N)[nH]c2=O)CC1 | 162 to 164 °C
CC(=O)NC(C)Cc1ccc(C=CC(=O)O)cc1 (configuration not stated) | 207 to 208 °C
Cc1c(C)c(S(=O)(=O)C[N+](=O)[O-])c(C)c2c1OC(C)(C)CC2 | 98 to 100 °C
CCC(=O)Oc1ccc2c(c1)C(=O)N(C(=O)CC)C(C(Cl)(Cl)Cl)O2 (configuration not stated) | 92 to 94 °C

SMILES | melting point
CC(C)C(c1ccc2[nH]c(=O)c(C(=O)O)nc2c1)n1ccnc1 (configuration not stated) | 238 °C
CNC(=O)C(=NOC)c1ccccc1COc1ccc(Cl)c(C(=O)OC(C)(C)C)n1 | 103 to 108 °C
CCCc1nn(C)c(C(N)=O)c1NC(=O)c1cc([N+](=O)[O-])cnc1OCC | 251 to 253 °C
c1ccc2cc(OC3CCC4(CCNCC4)CC3)ccc2c1 | 132 to 134 °C
O=C1NCCN1C1CCN(CCC2COc3cc(Cl)c(Cl)cc3O2)CC1 (configuration not stated) | 85 to 90 °C
CC1(C)Cc2c(c(N3CCCC3)nc3sc4c(NCc5ccccn5)ncnc4c23)CO1 | 249 to 251 °C
O=c1cc(Oc2ccc([N+](=O)[O-])cc2)cc[nH]1 | 227 to 228 °C
CC1(C)C2CC(=O)C(CCC(=O)O)C1C2 (configuration not stated) | 45 °C
CC(C)(C)C1=CC=CC(c2ccccc2Cl)(C(C)(C)C)C1O (configuration not stated) | 89.5 to 91 °C
Brc1cn2c(Br)cnc2c(NCc2ccco2)n1 | 143 °C
OC1(c2cncc(Br)c2)CCCC1 | 74 °C
Cc1cc(C2=NOC(c3cc(Cl)cc(Cl)c3)(C(F)(F)F)C2)ccc1C(=O)NCC(F)(F)F (configuration not stated) | 156 to 157 °C
COC(=O)Cc1ccc(OS(=O)(=O)C(F)(F)F)c([N+](=O)[O-])c1 | 44 to 45 °C
CCOC(=O)/C(=N\O[C@H]1CC[C@H](Cl)CC1)c1csc(N)n1 | 155 °C
COc1cc2c(cc1F)CC/C2=C\C#N | 197 to 199 °C
N[C@@H](Cc1ccc(C(F)(F)F)cc1)[C@H](O)c1ccc(F)cc1F (racemic) | 99 to 100 °C
O=C(O)Cn1cc(Cc2nc3c(F)c(F)cc(F)c3s2)c2cccc(F)c21 | 194 to 196 °C
O=C(NC1CC1)[C@@H]1CN(C(=O)OCc2ccccc2)C[C@H]1O | 132 to 133 °C
CCNCc1ccc2nc(C)[nH]c(=O)c2c1 | > 260 °C
CC1Cc2cc(O)ccc2C2C(F)CC3(C)C(=O)CCC3C12 (configuration not stated) | 185 to 186 °C
C#CCCCOc1c(C)cc(-c2noc(C)n2)cc1C | 41.5 to 43 °C

Results, then the molecule that gave them:

melting point | SMILES
161 to 162 °C | CN1C(=O)CCC2(C)c3ccc(Sc4cccc5ccccc45)cc3CCC12 (single isomer, unassigned; (+))
135 to 137 °C | Cc1oc(-c2ccccc2)nc1CCOc1ccc(COc2cc3ccccc3cc2C(=O)O)cc1
165 to 168 °C | O=c1[nH]ccc2c(OCc3ccccc3)cccc12
212 to 213 °C | CC1(C)OC(=O)Nc2ccc(-c3cccc(C#CC#N)c3)cc21
185 °C | CC(C)c1ccc(N(Cc2cnn(C(C)C)c2)C(=O)C2CCCc3c(O)cccc32)cc1 (configuration not stated)
98 to 115 °C | CCOC(=O)CNC(=O)CNCc1ccc(-c2cc3ncnc(Nc4ccc5[nH]ccc5c4)c3s2)cc1
104 to 105 °C | Cc1oc(-c2ccccc2)nc1COc1cc(CCl)ccn1
89 to 90.5 °C | CC(C)(C)C(O)(COc1ccccc1)c1cccnc1 (configuration not stated)
80 to 83 °C | CCCCC(=O)c1c(-c2ccc3cc(OCC(=O)OCC)ccc3c2)oc2ccc(Cl)cc12
117 to 119 °C | COc1ccc(CNc2nc(Cl)ncc2C(=O)c2ccccn2)cc1Cl
108 to 109 °C | Cc1ccc(S(=O)(=O)N[C@@H]2COC(=O)[C@H]2Cc2ccccc2)cc1
107 to 108 °C | OC(CCc1ccc(OCc2ccccc2)c(OCc2ccccc2)c1)C1CCCCC1 (configuration not stated)
185 to 187 °C | Cc1nc2c(O)c(CC[C@H](O)c3ccccc3)c(C(=O)N(C)C)cn2c1C
245 to 247 °C | NC(=O)[C@H](CO)NC(=O)c1cccc(NS(=O)(=O)CC2CN(C(c3ccc(Cl)cc3)c3ccc(Cl)cc3)C2)c1
138 to 140 °C | O=C(Nc1ccccc1)n1nc(-c2ccccc2)cc1Sc1ccccc1
264 to 266 °C | COc1ccc(-c2csc(Nc3cccc(C)n3)n2)cc1OC
115 to 116 °C | CSc1ccccc1NC(=O)Nc1ccc(N2CCN(C(=O)Nc3ccc(OCCO)cc3C(F)(F)F)CC2)cc1
150 to 152 °C | COc1ccc(-c2cc(NC(=O)CCCCBr)n[nH]2)cc1
166 °C | COc1ccc(S(=O)(=O)C2(C(=O)NO)CCN(Cc3ccc(-c4cccs4)cc3)CC2)cc1

melting point | SMILES
117 to 120 °C | CCc1nc2c(C)cc(C)nc2n1Cc1ccc(C(c2ccccc2)C(C)C(=O)NS(C)(=O)=O)cc1 (configuration not stated)
136 to 137 °C | Nc1sc(CC(O)CO)cc1C(=O)c1ccccc1Cl (configuration not stated)
129 to 130 °C | CC1CCC(=NC(=O)Nc2cccc(Cl)c2)N1C (configuration not stated)
193 to 194 °C | CN(C)C(=O)Cc1ccc2[nH]cc(CCN3C(=O)c4ccccc4C3=O)c2c1
102 to 104 °C | COc1ccc(-c2nc(SC)sc2-c2ccc(OC)cc2)cc1
221 to 222 °C | O=Cc1c(-c2ccccc2)nn2ccccc12
171 to 173 °C | C=CC(C)(C)C(O)(COc1ccc(-c2ccccc2)cc1)Cn1cnnc1 (configuration not stated)
211 to 214 °C | O=C(NNS(=O)(=O)c1ccccc1)c1ccc2ncccc2c1
149 to 150 °C | O=c1c(N2CCNCC2)nc2ccccc2n1-c1cccc(F)c1
195 to 196 °C | CS(=O)(=O)c1ccc(-n2cccc2-c2ccc(F)cc2)cc1
127 to 130 °C | CNc1cc(Oc2ccc(NC(=O)Nc3ccc(-c4ccncc4)c(C(F)(F)F)c3)cc2)ncn1
174 °C | O=C1OC(CO)CN1c1ccc2ccccc2c1 (configuration not stated)
172 to 173 °C | O=S(=O)(c1ccc(Cl)cc1)C(c1cc(F)ccc1F)c1cc(CO)ncc1Br (configuration not stated)
47 to 49 °C | CN1CCN(Cc2cccc(OCc3ccc4ccccc4n3)c2)CC1
56 °C | FC(F)(F)c1cccc(N2CCN(Cc3ccc(-c4ccccc4)o3)CC2)c1
80 to 82 °C | CC(C)C[C@H](NC(=O)OCc1ccccc1)C(=O)NC(C)(C)C(=O)CSCc1ccco1
106 to 108 °C | CN(C)C1CCN(c2nccc(Oc3ccc(NC(=O)c4cc(F)cc(N5CCOCC5)c4)c4ccccc34)n2)C1 (configuration not stated)
108 to 110 °C | Cn1cccc1C(=O)c1cc([N+](=O)[O-])ccc1Cl
